Columns and labels:
human recombinant BACE1 = human recombinant BACE1 (Homo sapiens (Human), UniProt P56817); test: In vitro enzymatic BACE1 FRET assay; assay type: biochemical; details: read-out: IC50 IP (μM) BACE1 enzyme
Outline: (§1)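 Ni-NTA-purified recombinant enzyme incubated 1 h with 50 nM FRET peptide substrate (fluorophore and quencher flanking the BACE cleavage site). Reaction stopped with Tris buffer raising pH to neutrality; cleavage-released fluorescence read at ex 488/em 590 nm.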

[1] = test system: Aβ40 in conditioned medium of cells stably expressing Amyloid Precursor Protein (APP); test: In vitro BACE-1 cell-based assay (Aβ40 sandwich ELISA); details: read-out: IC50 IP (μM) BACE1 cell
Outline: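 APP-stable cells, pre-cultured 24 h at 37° C in DMEM/10% FBS, were treated 24 h with compound in a 10-point series starting at 100 μM or 10 μM (0.1% DMSO final). Secreted Aβ40 in conditioned medium was measured by pAb40/biotin-6E10 sandwich ELISA with Europium time-resolved fluorescence; IC50 from percent inhibition versus concentration.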

human recombinant BACE2 = human recombinant BACE2 (Homo sapiens (Human), UniProt Q9Y5Z0); test: In vitro enzymatic BACE2 FRET assay; assay type: biochemical; details: read-out: IC50 IP (μM) BACE2 enzyme
Chain of human recombinant BACE2 (Q9Y5Z0 63-518): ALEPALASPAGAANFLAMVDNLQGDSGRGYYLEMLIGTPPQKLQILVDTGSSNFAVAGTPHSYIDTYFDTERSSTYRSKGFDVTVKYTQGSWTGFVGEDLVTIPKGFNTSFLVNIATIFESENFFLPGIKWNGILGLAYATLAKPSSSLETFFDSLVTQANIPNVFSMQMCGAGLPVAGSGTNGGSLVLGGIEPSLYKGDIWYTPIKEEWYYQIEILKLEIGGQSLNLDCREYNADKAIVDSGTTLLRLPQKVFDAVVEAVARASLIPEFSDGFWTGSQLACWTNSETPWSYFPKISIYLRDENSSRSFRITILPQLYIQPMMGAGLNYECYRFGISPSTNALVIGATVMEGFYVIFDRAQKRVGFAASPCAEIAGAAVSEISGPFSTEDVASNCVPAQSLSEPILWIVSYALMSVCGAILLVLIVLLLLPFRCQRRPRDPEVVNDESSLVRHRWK
Outline: as §1

Recombinant Cat D = Recombinant Cat D (Homo sapiens (Human), UniProt P07339); test: In vitro enzymatic Cathepsin D (Cat D) FRET assay; assay type: biochemical; details: read-out: IC50 IP (μM) CatD
Chain of Recombinant Cat D (P07339 65-412): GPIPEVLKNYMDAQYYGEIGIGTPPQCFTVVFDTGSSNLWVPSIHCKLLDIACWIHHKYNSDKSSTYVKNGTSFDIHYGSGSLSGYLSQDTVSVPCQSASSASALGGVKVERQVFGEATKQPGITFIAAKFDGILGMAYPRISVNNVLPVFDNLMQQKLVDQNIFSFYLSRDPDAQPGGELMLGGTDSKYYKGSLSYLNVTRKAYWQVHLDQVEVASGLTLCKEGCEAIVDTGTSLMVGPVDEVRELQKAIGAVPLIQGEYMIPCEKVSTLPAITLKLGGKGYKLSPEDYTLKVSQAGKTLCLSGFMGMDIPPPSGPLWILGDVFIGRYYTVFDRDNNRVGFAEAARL
Outline: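 Assay pH is 3.5 (0.05 M citrate, 5 mM CHAPS, 10% DMSO final) with Cat D from CHO cells. A 20 nM quenched peptide substrate is cleaved over one hour; the reaction is ended with Tris and read by fluorescence (ex 500, em 580 nm).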

Chain of human recombinant BACE1 (P56817 46-501): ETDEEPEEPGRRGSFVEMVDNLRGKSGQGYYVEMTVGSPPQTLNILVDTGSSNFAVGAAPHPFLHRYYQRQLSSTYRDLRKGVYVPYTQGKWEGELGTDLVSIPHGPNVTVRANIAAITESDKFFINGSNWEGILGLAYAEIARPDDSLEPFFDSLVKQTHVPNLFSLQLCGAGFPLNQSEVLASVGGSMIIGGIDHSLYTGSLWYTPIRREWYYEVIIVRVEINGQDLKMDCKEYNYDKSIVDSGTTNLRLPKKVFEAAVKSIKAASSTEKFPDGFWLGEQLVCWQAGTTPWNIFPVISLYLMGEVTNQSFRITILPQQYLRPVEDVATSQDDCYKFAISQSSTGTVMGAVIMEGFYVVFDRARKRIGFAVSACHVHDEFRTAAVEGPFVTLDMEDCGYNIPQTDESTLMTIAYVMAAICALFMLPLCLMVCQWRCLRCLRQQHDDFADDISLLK

Compound | IC50 (human recombinant BACE1) [µM] | IC50 [1] [µM] | IC50 (human recombinant BACE2) [µM] | IC50 (Recombinant Cat D) [µM]
CON(C)C(=O)[C@]12C[C@H]1[C@@](C)(c1cc(Nc3ncnc4cc(Cl)cnc34)cc(F)c1F)N=C(N)S2 [Example 901, (1S,5S,6S)-3-amino-5-(5-((7-chloropyrido[3,2-d]pyrimidin-4-yl)amino)-2,3-difluorophenyl)-N-methoxy-N,5-dimethyl-2-thia-4-azabicyclo[4.1.0]hept-3-ene-1-carboxamide] | 0.00192 | 0.0167 | 0.00203 | 603
CC(=O)[C@]12C[C@H]1[C@@](C)(c1cc(Nc3ncnc4cc(Cl)cnc34)cc(F)c1F)N=C(N)S2 [Example 902, 1-((1S,5S,6S)-3-amino-5-(5-((7-chloropyrido[3,2-d]pyrimidin-4-yl)amino)-2,3-difluorophenyl)-5-methyl-2-thia-4-azabicyclo[4.1.0]hept-3-en-1-yl)ethanone] | 0.0148 | 0.0796 | 0.0125 | 479
CC#CCOc1cnc2c(Nc3cc(F)c(F)c([C@@]4(C)N=C(N)S[C@@]5(COC)C[C@H]54)c3)nccc2c1 [Example 903, N-(3-((1S,5S,6S)-3-amino-1-(methoxymethyl)-5-methyl-2-thia-4-azabicyclo[4.1.0]hept-3-en-5-yl)-4,5-difluorophenyl)-3-(2-butyn-1-yloxy)-1,7-naphthyridin-8-amine] | 0.00195 | 0.00785 | 0.109 | 1220
CC(=O)[C@]12C[C@H]1[C@@](C)(c1cc(Nc3ncnc4cc(C#N)cnc34)cc(F)c1F)N=C(N)S2 [Example 904, 4-((3-((1S,5S,6S)-1-acetyl-3-amino-5-methyl-2-thia-4-azabicyclo[4.1.0]hept-3-en-5-yl)-4,5-difluorophenyl)amino)pyrido[3,2-d]pyrimidine-7-carbonitrile] | 0.0141 | 0.0132 | 0.0355 | 380
CC(=O)[C@]12C[C@H]1[C@@](C)(c1cc(NC(=O)c3ccc(Cl)cn3)cc(F)c1F)N=C(N)S2 [Example 906, N-(3-((1S,5S,6S)-1-acetyl-3-amino-5-methyl-2-thia-4-azabicyclo[4.1.0]hept-3-en-5-yl)-4,5-difluorophenyl)-5-chloro-2-pyridinecarboxamide] | 0.00404 | 0.014 | 0.00174 | 693
C[C@H](O)[C@]12C[C@H]1[C@@](C)(c1cc(Nc3ncnc4cc(C#N)cnc34)cc(F)c1F)N=C(N)S2 [Example 907, 4-((3-((1S,5S,6S)-3-amino-1-(1-hydroxyethyl)-5-methyl-2-thia-4-azabicyclo[4.1.0]hept-3-en-5-yl)-4,5-difluorophenyl)amino)pyrido[3,2-d]pyrimidine-7-carbonitrile] | 0.00747 | 0.00413 | 0.0102 | 381
C[C@@H](O)[C@]12C[C@H]1[C@@](C)(c1cc(Nc3ncnc4cc(C#N)cnc34)cc(F)c1F)N=C(N)S2 [Example 908] | 0.00801 | 0.00812 | 0.0255 | 360
CC(C)(O)[C@]12C[C@H]1[C@@](C)(c1cc(Nc3ncnc4cc(C#N)cnc34)cc(F)c1F)N=C(N)S2 [Example 909, 4-((3-((1S,5S,6S)-3-amino-1-(1-hydroxy-1-methylethyl)-5-methyl-2-thia-4-azabicyclo[4.1.0]hept-3-en-5-yl)-4,5-difluorophenyl)amino)pyrido[3,2-d]pyrimidine-7-carbonitrile] | 0.0257 | 0.0144 | 0.183 | 6.84
C#CCOc1cnc2c(Nc3cc(F)c(F)c([C@@]4(C)N=C(N)S[C@@]5(C(=O)N(C)C)C[C@H]54)c3)nccc2n1 [Example 912, (1S,5S,6S)-3-amino-5-(2,3-difluoro-5-((2-(2-propyn-1-yloxy)pyrido[3,4-b]pyrazin-5-yl)amino)phenyl)-N,N,5-trimethyl-2-thia-4-azabicyclo[4.1.0]hept-3-ene-1-carboxamide] | 0.000467 | 0.000795 | 0.00101 | > 400
C#CCOc1cnc(C(=O)Nc2cc(F)c(F)c([C@@]3(C)N=C(N)S[C@@]4(C(=O)NC)C[C@H]43)c2)cn1 [Example 914, (1S,5S,6S)-3-amino-5-(2,3-difluoro-5-(((5-(2-propyn-1-yloxy)-2-pyrazinyl)carbonyl)amino)phenyl)-N,5-dimethyl-2-thia-4-azabicyclo[4.1.0]hept-3-ene-1-carboxamide] | 0.000464 | 0.000534 | 0.0108 | 79.4
C#CCOc1cnc2c(Nc3cc(F)c(F)c([C@@]4(C)N=C(N)S[C@@]5(C#N)C[C@H]54)c3)nccc2n1 [Example 916, (1S,5S,6S)-3-amino-5-(2,3-difluoro-5-((2-(2-propyn-1-yloxy)pyrido[3,4-b]pyrazin-5-yl)amino)phenyl)-5-methyl-2-thia-4-azabicyclo[4.1.0]hept-3-ene-1-carbonitrile] | 0.000515 | 0.00974 | 0.00399 | 84.2
C#CCOc1cnc2c(Nc3cc(F)c(F)c([C@@]4(C)N=C(N)S[C@@]5(C(N)=O)C[C@H]54)c3)ncnc2c1 [Example 917, (1S,5S,6S)-3-amino-5-(2,3-difluoro-5-((7-(2-propyn-1-yloxy)pyrido[3,2-d]pyrimidin-4-yl)amino)phenyl)-5-methyl-2-thia-4-azabicyclo[4.1.0]hept-3-ene-1-carboxamide] | 0.000633 | 0.000857 | 0.0355 | 373
C[C@]1(c2cc(Nc3ncnc4cc(OCc5ncco5)cnc34)cc(F)c2F)N=C(N)S[C@@]2(C(N)=O)C[C@H]21 [Example 918, (1S,5S,6S)-3-amino-5-(2,3-difluoro-5-((7-(1,3-oxazol-2-ylmethoxy)pyrido[3,2-d]pyrimidin-4-yl)amino)phenyl)-5-methyl-2-thia-4-azabicyclo[4.1.0]hept-3-ene-1-carboxamide] | 0.000861 | 0.000733 | 0.0389 | 86.9
C#CCOc1cnc(C(=O)Nc2cc(F)c(F)c([C@@]3(C)N=C(N)S[C@@]4(C(N)=O)C[C@H]43)c2)cn1 [Example 919, (1S,5S,6S)-3-amino-5-(2,3-difluoro-5-(((5-(2-propyn-1-yloxy)-2-pyrazinyl)carbonyl)amino)phenyl)-5-methyl-2-thia-4-azabicyclo[4.1.0]hept-3-ene-1-carboxamide] | 0.000199 | 0.000298 | 0.00428 | 21.2
CC#CCOc1cnc2c(Nc3cc(F)c(F)c([C@@]4(C)N=C(N)S[C@@]5(C(N)=O)C[C@H]54)c3)nccc2n1 [Example 920, (1S,5S,6S)-3-amino-5-(5-((2-(2-butyn-1-yloxy)pyrido[3,4-b]pyrazin-5-yl)amino)-2,3-difluorophenyl)-5-methyl-2-thia-4-azabicyclo[4.1.0]hept-3-ene-1-carboxamide] | 0.000201 | 0.000644 | 0.00604 | 1080
CN(C)C(=O)[C@]12C[C@H]1[C@@](C)(c1cc(NC(=O)c3cnc(OCC(F)(F)C(F)F)cn3)cc(F)c1F)N=C(N)S2 [Example 922, (1S,5S,6S)-3-amino-5-(2,3-difluoro-5-(((5-(2,2,3,3-tetrafluoropropoxy)-2-pyrazinyl)carbonyl)amino)phenyl)-N,N,5-trimethyl-2-thia-4-azabicyclo[4.1.0]hept-3-ene-1-carboxamide] | 0.00155 | 0.00155 | 0.00839 | 1090
CN(C)C(=O)[C@]12C[C@H]1[C@@](C)(c1cc(Nc3ncnc4cc(OCc5ncco5)cnc34)cc(F)c1F)N=C(N)S2 [Example 923, (1S,5S,6S)-3-amino-5-(2,3-difluoro-5-((7-(1,3-oxazol-2-ylmethoxy)pyrido[3,2-d]pyrimidin-4-yl)amino)phenyl)-N,N,5-trimethyl-2-thia-4-azabicyclo[4.1.0]hept-3-ene-1-carboxamide] | 0.000863 | 0.000338 | 0.00253 | 121
C#C[C@H](C)Oc1cnc2c(Nc3cc(F)c(F)c([C@@]4(C)N=C(N)S[C@@]5(C(=O)N(C)C)C[C@H]54)c3)nccc2n1 [Example 925, (1S,5S,6S)-3-amino-5-(2,3-difluoro-5-((2-(((1S)-1-methyl-2-propyn-1-yl)oxy)pyrido[3,4-b]pyrazin-5-yl)amino)phenyl)-N,N,5-trimethyl-2-thia-4-azabicyclo[4.1.0]hept-3-ene-1-carboxamide] | 0.0014 | 0.00308 | 0.00387 | > 400
CN(C)C(=O)[C@]12C[C@H]1[C@@](C)(c1cc(NC(=O)c3cnc(OCC(F)(F)F)cn3)cc(F)c1F)N=C(N)S2 [Example 926, (1S,5S,6S)-3-amino-5-(2,3-difluoro-5-(((5-(2,2,2-trifluoroethoxy)-2-pyrazinyl)carbonyl)amino)phenyl)-N,N,5-trimethyl-2-thia-4-azabicyclo[4.1.0]hept-3-ene-1-carboxamide] | 0.0021 | 0.00113 | 0.00491 | 695

From US20160046618A1, “Cyclopropyl Fused Thiazin-2-Amine Compounds as Beta-Secretase Inhibitors and Methods of Use” (AMGEN INC., priority 2014, published 2016)
